Test results from patent US11807625B2, “Capsid inhibitors for the prevention of HIV” (Gilead Sciences, Inc., priority 2019, dated 2023).
Where two headings read alike, the source gives them in different places.

Experiment: PK of compound of Formula (Ia) after single subcutaneous dose of solution formulations in Wistar Han rats
Type: in vivo
Settings: male, Wistar Han, rat, plasma, sc, 50 mg/kg; for concentration at 2688 h / concentration at 3024 h / concentration at 3360 h / concentration at 3696 h / concentration at 4032 h / concentration at 4704 h: Wistar Han rats, SC 50 mg/kg, 500 mg/mL solution X (5.00% ethanol, 1.91% poloxamer 188); for AUC(0-t): male Wistar Han rats, single SC 50 mg/kg, mean ± SD
Procedure: Formulations containing the compound of Formula (Ia), or a pharmaceutically acceptable salt thereof, were prepared as solutions and optionally administered subcutaneously or intramuscularly to rats, rabbits, and/or dogs.
A solution of about 400 mg/mL of the compound of Formula (Ia) having 19.14 w/w % water, 40.66 w/w % PEG 300, 35.20 w/w % of a sodium salt of a compound of Formula (Ia), and 5.00% ethanol was prepared. The solution was administered subcutaneously to male Wistar Han rats at a dose level of about 50 mg/kg and dose volume of 0.125 mL/kg and the pharmacokinetic (PK) profile was determined.
A solution of about 500 mg/mL of the compound of Formula (Ia) having 16.64 w/w % water, 35.36 w/w % PEG 300, 43.00 w/w % of a sodium salt of a compound of Formula (Ia), and 5.00% ethanol was prepared. The solution was administered subcutaneously to male Wistar Han rats at a dose level of about 50 mg/kg and dose volume of 0.1 mL/kg and the pharmacokinetic (PK) profile was determined.
A solution of about 400 mg/mL of the compound of Formula (Ia) having 17.00 w/w % water, 36.40 w/w % PEG 300, 35.20 w/w % of a sodium salt of a compound of Formula (Ia), 5.00 w/w % ethanol, and 6.40 w/w % poloxamer 188 was prepared. The solution was administered subcutaneously to male beagle dogs at a dose level of about 12 mg/kg and male Wistar Han rats at a dose level of about 50 mg/kg. The pharmacokinetic profiles were determined, and the results for dogs are summarized in Table and Table, while the results for rats are summarized in Table and Table below.
A solution of about 500 mg/mL of the compound of Formula (Ia) having 14.06 w/w % water, 30.12 w/w % PEG 300, […] of a sodium salt of a compound of Formula (Ia), 5.00 w/w % ethanol, and 6.40 w/w % poloxamer 188 was prepared. The solution was administered subcutaneously to male beagle dogs at a dose level of about 12 mg/kg and male Wistar Han rats at a dose level of about 50 mg/kg. The pharmacokinetic profiles were determined, and the results for dogs are summarized in Table and Table, while the results for rats are summarized in Table and Table below.
A solution of about 300 mg/mL of the compound of Formula (Ia) having 23.33 w/w % water, 48.99 w/w % PEG 300, 26.47 w/w % of a sodium salt of a compound of Formula (Ia), and 1.21 w/w % poloxamer 188 was prepared. The solution was administered subcutaneously to male beagle dogs at a dose level of about 6 mg/kg and male Wistar Han rats at a dose level of about 50 mg/kg. The pharmacokinetic profiles were determined, and the results for dogs are summarized in Table and Table, while the results for rats are summarized in Table and Table below.
A solution of about 400 mg/mL of the compound of Formula (Ia) having 18.80 w/w % water, 40.25 w/w % PEG 300, 34.38 w/w % of a sodium salt of a compound of Formula (Ia), 5.00 w/w % ethanol, and 1.57 w/w % poloxamer 188 was prepared. The solution was administered subcutaneously to male beagle dogs at a dose level of about 12 mg/kg and male Wistar Han rats at a dose level of about 50 mg/kg. The pharmacokinetic profiles were determined, and the results for dogs are summarized in Table and Table, while the results for rats are summarized in Table and Table below.
A solution of about 500 mg/mL of the compound of Formula (Ia) having 16.29 w/w % water, 34.88 w/w % PEG 300, 41.92 w/w % of a sodium salt of a compound of Formula (Ia), 5.00 w/w % ethanol, and 1.91 w/w % poloxamer 188 was prepared. The solution was administered subcutaneously to male beagle dogs at a dose level of about 12 mg/kg and male Wistar Han rats at a dose level of about 50 mg/kg. The pharmacokinetic profiles were determined, and the results for dogs are summarized in Table and Table, while the results for rats are summarized in Table and Table below.
A solution of about 400 mg/mL of the compound of Formula (Ia) having 20.90 w/w % water, 44.72 w/w % PEG 300, and 34.38 w/w % of a sodium salt of a compound of Formula (Ia) was prepared. […]

With `CC(C)(C#Cc1ccc(-c2ccc(Cl)c3c(NS(C)(=O)=O)nn(CC(F)(F)F)c23)c([C@H](Cc2cc(F)cc(F)c2)NC(=O)Cn2nc(C(F)(F)F)c3c2C(F)(F)[C@@H]2C[C@H]32)n1)S(C)(=O)=O` [compound of Formula (Ia)] the concentration at 2688 h (Mean n = 3) was 168 nM, the concentration at 2688 h (animals #1-#3) was 141 nM and the concentration at 3024 h (Mean n = 3) was 161 nM. The concentration at 3024 h (animals #1-#3) was 127 nM, the concentration at 3360 h (Mean n = 3) was 157 nM and the concentration at 3360 h (animals #1-#3) was 122 nM. For the same compound, the concentration at 3696 h (Mean n = 3) was 134 nM, the concentration at 3696 h (animals #1-#3) was 121 nM and the concentration at 4032 h (Mean n = 3) was 135 nM. For the same compound, the concentration at 4032 h (animals #1-#3) was 97.5 nM, the concentration at 4704 h (Mean n = 3) was 88.8 nM and the concentration at 4704 h (animals #1-#3) was 79.4 nM. The AUC(0-t) (400 mg/mL solution AA (6.25% poloxamer 188), n = 4, read-out: AUC0-24 h) was 3.44 ± 0.69 µM·h, the AUC(0-t) (400 mg/mL solution AA (6.25% poloxamer 188), n = 4, read-out: AUC0-168 h) was 32.4 ± 7.6 µM·h and the AUC(0-t) (400 mg/mL solution AA (6.25% poloxamer 188), n = 4, read-out: AUC0-336 h) was 55.2 ± 16.3 µM·h. It also gave an AUC(0-t) (400 mg/mL solution AA (6.25% poloxamer 188), n = 4, read-out: AUC0-672 h) of 98 ± 30.4 µM·h, an AUC(0-t) (400 mg/mL solution AA (6.25% poloxamer 188), n = 4, read-out: AUC0-1008 h) of 136 ± 36 µM·h and an AUC(0-t) (400 mg/mL solution AA (6.25% poloxamer 188), n = 4, read-out: AUC0-1344 h) of 167 ± 41 µM·h. It also gave an AUC(0-t) (400 mg/mL solution AA (6.25% poloxamer 188), n = 4, read-out: AUC0-2352 h) of 190 ± 45 µM·h, an AUC(0-t) (400 mg/mL solution AA (6.25% poloxamer 188), n = 4, read-out: AUC0-3024 h) of 240 ± 59 µM·h and an AUC(0-t) (400 mg/mL solution AA (6.25% poloxamer 188), n = 4, read-out: AUC0-3696 h) of 289 ± 76 µM·h. For the same compound, the AUC(0-t) (400 mg/mL solution W (5.00% ethanol, 1.57% poloxamer 188), n = 3, read-out: AUC0-24 h) was 2 ± 0.58 µM·h, the AUC(0-t) (400 mg/mL solution W (5.00% ethanol, 1.57% poloxamer 188), n = 3, read-out: AUC0-168 h) was 21.6 ± 4.5 µM·h and the AUC(0-t) (400 mg/mL solution W (5.00% ethanol, 1.57% poloxamer 188), n = 3, read-out: AUC0-336 h) was 45.9 ± 11.9 µM·h. For the same compound, the AUC(0-t) (400 mg/mL solution W (5.00% ethanol, 1.57% poloxamer 188), n = 3, read-out: AUC0-672 h) was 124 ± 32 µM·h, the AUC(0-t) (400 mg/mL solution W (5.00% ethanol, 1.57% poloxamer 188), n = 3, read-out: AUC0-1008 h) was 215 ± 45 µM·h and the AUC(0-t) (400 mg/mL solution W (5.00% ethanol, 1.57% poloxamer 188), n = 3, read-out: AUC0-1344 h) was 306 ± 65 µM·h. For the same compound, the AUC(0-t) (400 mg/mL solution W (5.00% ethanol, 1.57% poloxamer 188), n = 3, read-out: AUC0-1680 h) was 401 ± 86 µM·h, the AUC(0-t) (400 mg/mL solution W (5.00% ethanol, 1.57% poloxamer 188), n = 3, read-out: AUC0-2352 h) was 540 ± 114 µM·h and the AUC(0-t) (400 mg/mL solution W (5.00% ethanol, 1.57% poloxamer 188), n = 3, read-out: AUC0-3024 h) was 647 ± 126 µM·h. It also gave an AUC(0-t) (400 mg/mL solution W (5.00% ethanol, 1.57% poloxamer 188), n = 3, read-out: AUC0-3696 h) of 730 ± 131 µM·h, an AUC(0-t) (400 mg/mL solution W (5.00% ethanol, 1.57% poloxamer 188), n = 3, read-out: AUC0-4704 h) of 765 ± 131 µM·h and an AUC(0-t) (400 mg/mL solution Y (water, PEG 300), n = 4, read-out: AUC0-24 h) of 1.66 ± 0.32 µM·h. For the same compound, the AUC(0-t) (400 mg/mL solution Y (water, PEG 300), n = 4, read-out: AUC0-168 h) was 15.7 ± 4.7 µM·h.
